Assay results as given in ChEMBL document CHEMBL3400005, “Thermodynamic equilibrium solubility measurements in simulated fluids by 96-well plate method in early drug discovery” (Bioorg Med Chem Lett, 2015).
Converted amounts (≈) assume the structure as drawn.

Legend:
[1] = buffer, pH 7.4, 24 h
[2] = buffer, pH 7.4, 4 h
physchem [3] = settings: simulated intestinal fluid, pH 6.8
[4] = buffer, 24 h
physchem [5] = settings: simulated gastric fluid, pH 1.2
[6] = buffer, 4 h
physchem [7] = settings: simulated gastric fluid, pH 1.2; remark: listed apart in the source
physchem [8] = settings: simulated intestinal fluid, pH 6.8; remark: listed apart in the source
[9] = simulated gi fluid, pH 6.8, 4 h
[10] = simulated gi fluid, pH 1.2, 24 h
[11] = simulated gi fluid, pH 1.2, 4 h
[12] = simulated gi fluid, pH 6.8, 24 h
physchem [13] = settings: water
physchem [14] = settings: PBS, pH 7.4
physchem [15] = assay: physchem
physchem [16] = settings: water; remark: listed apart in the source
physchem [17] = settings: PBS, pH 7.4; remark: listed apart in the source

## CC(=O)Nc1ccc(O)cc1 [ACETAMINOPHEN]
[1]
  -log(solubility): 2.93
[2]
  -log(solubility): 3
Physchem [3]
  solubility thermodynamic at 4 h: 3.31 µM (≈ 0.501 µg/mL)
[4]
  -log(solubility): 2.87
Physchem [5]
  solubility thermodynamic at 24 h: 1230 µM (≈ 186 µg/mL)
[6]
  -log(solubility): 2.7
Physchem [7]
  solubility thermodynamic at 4 h: 1000 µM (≈ 151 µg/mL)
Physchem [8]
  solubility thermodynamic at 24 h: 3.31 µM (≈ 0.501 µg/mL)

## CCCC1O[C@@H]2C[C@H]3[C@@H]4CCC5=CC(=O)C=C[C@]5(C)[C@H]4[C@@H](O)C[C@]3(C)[C@]2(C(=O)CO)O1 (stereo partly drawn) [BUDESONIDE]
[1]
  -log(solubility): 5.27
[2]
  -log(solubility): 5.03
[9]
  -log(solubility): 5.03
[10]
  -log(solubility): 5.07
[11]
  -log(solubility): 5.03
[4]
  -log(solubility): 5.23
other
  -log(solubility): 5.33
  solubility: 28 µg/mL (≈ 65 µM)
[6]
  -log(solubility): 5.03
[12]
  -log(solubility): 5.24

## NC(=O)N1c2ccccc2C=Cc2ccccc21 [CARBAMAZEPINE]
[1]
  -log(solubility): 4.48
[2]
  -log(solubility): 4.47
[9]
  -log(solubility): 4.28
[10]
  -log(solubility): 4.34
[11]
  -log(solubility): 4.07
[4]
  -log(solubility): 4.4
other
  -log(solubility): 4.29
  solubility: 170 µg/mL (≈ 720 µM)
[6]
  -log(solubility): 4.07
[12]
  -log(solubility): 4.85

## COc1cc2c(c(OC)c1OC)-c1ccc(OC)c(=O)cc1[C@@H](NC(C)=O)CC2 [COLCHICINE]
[2]
  -log(solubility): 3.7
Physchem [3]
  solubility thermodynamic at 4 h: 200 µM (≈ 79.7 µg/mL)
[6]
  -log(solubility): 3.43
Physchem [7]
  solubility thermodynamic at 4 h: 50.1 µM (≈ 20 µg/mL)

## COc1cc(/C=C/C(=O)CC(=O)/C=C/c2ccc(O)c(OC)c2)ccc1O [CURCUMIN]
Physchem [13]
  solubility thermodynamic at 4 h: 1.35 µM (≈ 0.497 µg/mL)
Physchem [3]
  solubility thermodynamic at 4 h: 1.35 µM (≈ 0.497 µg/mL)
Physchem [14]
  solubility thermodynamic at 4 h: 1.35 µM (≈ 0.497 µg/mL)
other
  -log(solubility): 6.78
Physchem [7]
  solubility thermodynamic at 4 h: 1.35 µM (≈ 0.497 µg/mL)

## CC1(C)[C@@H](O)CC[C@]2(C)[C@H]3C(=O)C=C4[C@@H]5C[C@@](C)(C(=O)O)CC[C@]5(C)CC[C@@]4(C)[C@]3(C)CC[C@@H]12 [ENOXOLONE]
[2]
  -log(solubility): 5.67
Physchem [3]
  solubility thermodynamic at 4 h: 1.07 µM (≈ 0.504 µg/mL)
[6]
  -log(solubility): 5.97
Physchem [7]
  solubility thermodynamic at 4 h: 1.07 µM (≈ 0.504 µg/mL)

## COCCOC(=O)C1=C(C)NC(C)=C(C(=O)OC(C)C)C1c1cccc([N+](=O)[O-])c1 (stereo not drawn) [NIMODIPINE]
Physchem [13]
  solubility thermodynamic at 4 h: 4.79 µM (≈ 2 µg/mL)
[2]
  -log(solubility): 6.62
Physchem [15]
  solubility thermodynamic: 5.75 µM (≈ 2.41 µg/mL)
Physchem [3]
  solubility thermodynamic at 4 h: 9.55 µM (≈ 4 µg/mL)
Physchem [5]
  solubility thermodynamic at 24 h: 10.7 µM (≈ 4.48 µg/mL)
Physchem [16]
  solubility thermodynamic at 24 h: 4.07 µM (≈ 1.7 µg/mL)
Physchem [7]
  solubility thermodynamic at 4 h: 9.55 µM (≈ 4 µg/mL)
Physchem [8]
  solubility thermodynamic at 24 h: 10 µM (≈ 4.18 µg/mL)
Physchem [17]
  solubility thermodynamic at 24 h: 0.398 µM (≈ 0.167 µg/mL)

## CO[C@H]1/C=C/O[C@@]2(C)Oc3c(C)c(O)c4c(O)c(c(/C=N/N5CCN(C)CC5)c(O)c4c3C2=O)NC(=O)/C(C)=C\C=C\[C@H](C)[C@H](O)[C@@H](C)[C@@H](O)[C@@H](C)[C@H](OC(C)=O)[C@@H]1C [RIFAMPIN]
[1]
  -log(solubility): 4.14
[2]
  -log(solubility): 4.01
Physchem [3]
  solubility thermodynamic at 4 h: 97.7 µM (≈ 80.4 µg/mL)
[4]
  -log(solubility): 4.21
Physchem [5]
  solubility thermodynamic at 24 h: 95.5 µM (≈ 78.6 µg/mL)
[6]
  -log(solubility): 4.31
Physchem [7]
  solubility thermodynamic at 4 h: 97.7 µM (≈ 80.4 µg/mL)
Physchem [8]
  solubility thermodynamic at 24 h: 72.4 µM (≈ 59.6 µg/mL)
